According to patent publication EP4596536A1 (Shanghai de Novo Pharmatech Co., Ltd., priority 2022, dated 2024):

How the values were obtained:
TLR8 = target: T1, TLR8 (Homo sapiens, UniProt Q9NR97); test: HEK-BLUE-hTLR8 cell SEAP reporter assay (Quanti-Blue); type: cell-based; details: HEK-BLUE-hTLR8 cells, 0.5 nM to 15 µM, 24 hours
T1 construct: host or cells: HEK293 (HEK-BLUE-hTLR8)
T1 sequence (Q9NR97 27-1041): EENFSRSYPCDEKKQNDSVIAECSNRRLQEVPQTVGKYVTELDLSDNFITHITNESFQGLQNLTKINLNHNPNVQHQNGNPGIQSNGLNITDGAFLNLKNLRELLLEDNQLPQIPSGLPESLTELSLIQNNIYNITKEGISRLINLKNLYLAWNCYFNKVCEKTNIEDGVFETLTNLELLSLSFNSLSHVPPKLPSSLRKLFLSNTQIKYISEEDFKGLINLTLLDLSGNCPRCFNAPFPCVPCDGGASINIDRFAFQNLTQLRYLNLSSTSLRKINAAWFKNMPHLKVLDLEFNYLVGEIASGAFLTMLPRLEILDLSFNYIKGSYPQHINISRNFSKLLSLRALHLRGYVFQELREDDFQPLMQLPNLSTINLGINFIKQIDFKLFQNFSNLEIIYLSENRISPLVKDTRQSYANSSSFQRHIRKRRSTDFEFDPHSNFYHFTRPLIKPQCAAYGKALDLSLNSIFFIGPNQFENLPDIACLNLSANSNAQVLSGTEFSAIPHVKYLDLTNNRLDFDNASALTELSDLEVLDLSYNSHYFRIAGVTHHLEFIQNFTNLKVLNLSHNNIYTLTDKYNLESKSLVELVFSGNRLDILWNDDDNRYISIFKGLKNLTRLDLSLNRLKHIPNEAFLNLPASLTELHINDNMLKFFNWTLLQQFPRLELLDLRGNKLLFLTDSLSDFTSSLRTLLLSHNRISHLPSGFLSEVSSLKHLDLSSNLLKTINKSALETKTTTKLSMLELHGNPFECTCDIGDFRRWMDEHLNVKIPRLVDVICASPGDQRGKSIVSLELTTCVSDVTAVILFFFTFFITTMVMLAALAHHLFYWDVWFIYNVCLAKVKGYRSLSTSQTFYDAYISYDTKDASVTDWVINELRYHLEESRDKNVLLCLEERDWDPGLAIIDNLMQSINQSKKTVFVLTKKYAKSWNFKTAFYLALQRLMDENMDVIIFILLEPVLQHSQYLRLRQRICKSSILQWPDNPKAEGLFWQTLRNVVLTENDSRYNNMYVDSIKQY
Description: (§1) In this experiment, the biological activity of TLR7 and TLR8 in the compound of formula I was detected using cell tests. This method was conducted in human embryonic kidney cells (HEK293) expressing TLR family members such as TLR4, TLR7, TLR8 or TLR9. TLR agonists activate TLRs, triggering the activation of downstream NF-kB, which in turn activates the secreted embryonic alkaline phosphatase (SEAP) reporter gene. The activity of SEAP was detected using the Quanti-Blue (InvivoGen) reagent, thereby reflecting the activities of TLR7 and TLR8 agonists.
(§2) The detailed experimental method was as follows: HEK-BLUE-hTLR7 and HEK-BLUE-hTLR8 cell lines were purchased from Invivogen Company and cultured in DMEM medium containing 4.5 g/L glucose (Sigma-Aldrich) and 10% fetal bovine serum under the conditions of temperature 37°C, humidity 95% and 5% CO2.
(§3) The compound was tested at a concentration ranging from 0.5 nM to 15 µM over a total of 10 concentration gradients. TLR7 or TLR8 agonists with known activity were added as positive controls, and 1 µL of DMSO was added as a negative control.
(§4) The cells were treated as follows: the cells were removed from the culture dish and centrifuged to remove the medium, and resuspended in a T-150 bottle with 10 mL of preheated PBS, 12 mL of preheated medium was added, and the cells were gently pipetted up and down and counted under a microscope. A 200,000/mL single-cell suspension was immediately prepared with medium and added to a 96-well plate at 200 µL/well (40,000/well). The final concentration of DMSO was 0.5%.
(§5) The compound was added and incubated in an incubator at 37°C, 5% CO2 for 24 hours.
(§6) A supernatant at 20 µL/well was aspirated into 180 µL of preheated Quanti-Blue at 37°C, incubated at 37°C for 1.5 hours, and detected for the absorbance (OD value) with a spectrophotometer at 650 nm. The formula for calculating the agonistic effect is as follows:
(§7) Effect % = (average OD value of the drug-administered group - average OD value of the DMSO group) / (average OD value of the positive drug group - average OD value of the DMSO group) × 100
(§8) Graphpad software was used to fit the concentration-effect curve, and EC50 was calculated. The test results are shown in Table 15 (A denotes < 250 nM, B denotes 250 nM-1 µM, C denotes 1 µM-2 µM, D denotes > 2 µM, and - denotes not listed or not tested): Table 15

TLR7 = target: T2, TLR7 (Homo sapiens, UniProt Q9NYK1); test: HEK-BLUE-hTLR7 cell SEAP reporter assay (Quanti-Blue); type: cell-based; details: HEK-BLUE-hTLR7 cells, 0.5 nM to 15 µM, 24 hours
T2 construct: host or cells: HEK293 (HEK-BLUE-hTLR7)
T2 sequence (Q9NYK1 27-1049): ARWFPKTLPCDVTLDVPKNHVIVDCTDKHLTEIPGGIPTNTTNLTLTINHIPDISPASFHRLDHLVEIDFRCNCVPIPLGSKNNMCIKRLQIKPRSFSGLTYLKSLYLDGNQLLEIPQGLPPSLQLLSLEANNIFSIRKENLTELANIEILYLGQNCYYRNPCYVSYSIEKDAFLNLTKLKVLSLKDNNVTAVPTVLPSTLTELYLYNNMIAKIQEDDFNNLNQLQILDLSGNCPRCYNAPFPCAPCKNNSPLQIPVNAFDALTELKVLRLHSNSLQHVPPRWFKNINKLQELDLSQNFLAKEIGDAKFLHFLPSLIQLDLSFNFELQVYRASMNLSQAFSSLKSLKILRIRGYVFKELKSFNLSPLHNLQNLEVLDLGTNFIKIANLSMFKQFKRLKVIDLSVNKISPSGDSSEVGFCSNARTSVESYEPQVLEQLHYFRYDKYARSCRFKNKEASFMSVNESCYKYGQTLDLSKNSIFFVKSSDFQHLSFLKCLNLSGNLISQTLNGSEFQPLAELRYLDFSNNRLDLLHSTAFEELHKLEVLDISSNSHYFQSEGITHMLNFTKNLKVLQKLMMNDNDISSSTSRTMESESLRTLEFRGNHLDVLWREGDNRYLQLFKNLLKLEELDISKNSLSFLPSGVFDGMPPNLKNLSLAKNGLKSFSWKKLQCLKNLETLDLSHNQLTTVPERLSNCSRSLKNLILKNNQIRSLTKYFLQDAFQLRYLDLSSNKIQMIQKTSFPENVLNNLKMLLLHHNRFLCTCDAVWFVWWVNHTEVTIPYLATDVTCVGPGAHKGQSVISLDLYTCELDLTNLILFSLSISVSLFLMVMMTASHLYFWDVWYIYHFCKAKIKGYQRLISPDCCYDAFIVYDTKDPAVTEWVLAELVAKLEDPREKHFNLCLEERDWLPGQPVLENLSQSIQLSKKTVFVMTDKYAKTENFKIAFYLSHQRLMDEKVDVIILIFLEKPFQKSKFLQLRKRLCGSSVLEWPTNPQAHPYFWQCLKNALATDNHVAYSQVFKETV
Description: as §1, §2, §3, §4, §5, §6, §7, §8

In the case of CCCN(CCC)C(=O)C1=Cc2ccc(C3(C(=O)Nc4cnc5c(c4)CNCC5)CC3)cc2N=C(N)C1 [Compound 1, 2-amino-N,N-dipropyl-8-(1-((5,6,7,8-tetrahydro-1,6-naphthyridin-3-yl)carbamoyl)cyclopropyl)-3H-benzo[b]azepine-4-formamide], the EC50 (TLR8) is reported as < 250 nM and the EC50 (TLR7) is reported as > 2000 nM.

With CCCN(CCO)C(=O)C1=Cc2ccc(C3(C(=O)Nc4cnc5c(c4)CNCC5)CC3)cc2N=C(N)C1 [Compound 2, 2-amino-N-(2-hydroxyethyl)-N-propyl-8-(1-((5,6,7,8-tetrahydro-1,6-naphthyridin-3-yl)carbamoyl)cyclopropyl)-3H-benzo[b]azepine-4-formamide] the EC50 (TLR8) was 250 to 1000 nM and the EC50 (TLR7) was > 2000 nM.

In the case of CCCN(CCC)C(=O)C1=Cc2c(F)cc(C3(C(=O)Nc4cnc5c(c4)CNCC5)CC3)cc2N=C(N)C1 [Compound 3, 2-amino-6-fluoro-N,N-dipropyl-8-(1-((5,6,7,8-tetrahydro-1,6-naphthyridin-3-yl)carbamoyl)cyclopropyl)-3H-benzo[b]azepine-4-formamide], the EC50 (TLR8) is reported as < 250 nM and the EC50 (TLR7) is reported as > 2000 nM.

In the case of CCCN(CCO)C(=O)C1=Cc2c(F)cc(C3(C(=O)Nc4cnc5c(c4)CNCC5)CC3)cc2N=C(N)C1 [Compound 6, 2-amino-6-fluoro-N-(2-hydroxyethyl)-N-propyl-8-(1-((5,6,7,8-tetrahydro-1,6-naphthyridin-3-yl)carbamoyl)cyclopropyl)-3H-benzo[b]azepine-4-formamide], the EC50 (TLR8) is reported as 250 to 1000 nM and the EC50 (TLR7) is reported as > 2000 nM.

CCCN(CCO)C(=O)C1=Cc2ccc(C3(C(=O)Nc4cncc(CN)c4)CC3)cc2N=C(N)C1 [Compound 7, 2-amino-8-(1-((5-(aminomethyl)pyridin-3-yl)carbamoyl)cyclopropyl)-N-(2-hydroxyethyl)-N-propyl-3H-benzo[b]azepine-4-formamide] was tested, and the EC50 (TLR8) was < 250 nM and the EC50 (TLR7) was > 2000 nM.
